Test results: US20260256792A1, “TREATMENT OF CHRONIC SPONTANEOUS URTICARIA BY ADMINISTERING (R)-2-[3-[4-AMINO-3-(2-FLUORO-4-PHENOXY-PHENYL)PYRAZOLO[3,4-D]PYRIMIDIN-1-YL]PIPERIDINE-1-CARBONYL]-4-METHYL-4-[4-(OXETAN-3-YL)PIPERAZIN-1-YL]PENT-2-ENENITRILE” (priority 2023, published 2026)

System: moderate-to-severe chronic spontaneous urticaria (CSU)
Assay: Phase 2 CSU study: urticaria activity score over 7 days (UAS7)
Type: in vivo, human
Design: key to UAS7 Median / UAS7 Change from baseline Median / UAS7 change from baseline, Q1 / UAS7 change from baseline, Q3 / UAS7 change from baseline, Max / UAS7 Change from baseline LS Mean (SE): UAS7 points; daily UAS score ranges 0–6 points/day, over 7 days
Details: for UAS7 change from baseline at Week 12, LS Mean (SE): ANCOVA; for LS mean change in UAS7 from baseline to Week 12 (see Table 18): sentence on reductions following one week of treatment; for UAS7 Change from baseline Mean (SD) / UAS7 Change from baseline Median / UAS7 Percent change from baseline Mean (SD) / UAS7 Percent change from baseline Median / UAS7 change from baseline, Max / UAS7 change from baseline, Min / UAS7 change from baseline, Q1 / UAS7 change from baseline, Q3 / UAS7 percent change from baseline, Max / UAS7 percent change from baseline, Min / UAS7 percent change from baseline, Q1 / UAS7 percent change from baseline, Q3: double-blind period, last week block of Table 17 (week heading not shown); for participants with UAS7 of 0 / participants with UAS7 of ≤6: Week 12, omalizumab-naïve; for UAS7 Mean (SD) / UAS7 Median: End of Study; for UAS7 % Change difference for rilzabrutinib vs. placebo LS Mean (95% CI) / UAS7 % Change from baseline LS Mean (SE) / UAS7 Change difference for rilzabrutinib vs. placebo LS Mean (95% CI) / UAS7 Change from baseline LS Mean (SE): ITT Population
Text: The study comprises a 12 week, randomized, double-blind, placebo-controlled, multi-center, dose-ranging efficacy and safety phase, followed by a 40 week open label extension (OLE) phase (see FIG. 1). The study consists of three phases and an optional OLE phase. […] Clinically, CSU is characterized by the spontaneous and recurrent appearance of pruritic hives. The proposed primary endpoints were the UAS7 at Week 12 in EU and EU reference countries and the ISS7 in the US. Regardless of where a participant was from, all assessments were the same. The UAS7 score is a composite score containing both the HSS7 and the ISS7. This allowed a global assessment of the two key components of urticaria: hives and itch. […] The UAS is a validated PRO measure. […] The daily UAS scores range from 0 to 6 point/day. […] Patients were to complete the UAS using the e-diary. […] The following secondary endpoints were to be analyzed using the same approach as for the primary endpoint: • Change from baseline in UAS7 at Week 4 • Change from baseline in UAS7 at Week 12 (for US and US reference countries) • Change from baseline in ISS7 at Week 12 (except US and US reference countries) • Change from baseline in HSS7 at Week 12 The following responder secondary endpoints were to be analyzed using the Cochran-Mantel-Haenszel test adjusted by region: • Proportion of participants with UAS7<6 at Week 12 • Proportion of participants with UAS7=0 at Week 12 Participants who received selected prohibited medications and/or rescue medications were to be considered as non-responders for time points after the medication usage. For other participants, all available data including those collected during the off-treatment period were to be used to determine the responder/non-responder status. Missing data were to be considered as non-responders.

[1] = 400 mg BID, Omalizumab-Naïve Population (N = 35), n observed/imputed 5 (3/2)
[2] = 400 mg BID, omalizumab-naïve population
[3] = 400 mg BID, omalizumab-naïve population with outlier removed
[4] = 400 mg QPM, Omalizumab-Naïve Population (N = 37), n observed/imputed 7 (3/4)
[5] = 400 mg QPM, omalizumab-naïve population
[6] = 400 mg QPM, omalizumab-naïve population with outlier removed
[7] = 400 mg TID, Omalizumab-Naïve Population (N = 35), n observed/imputed 5 (3/2)
[8] = 400 mg TID, Patients with Prior Omalizumab Use, Including Omalizumab-Incomplete Responders (N = 6), n observed/imputed 2 (0/2)
[9] = 400 mg TID, omalizumab-naïve population
[10] = 400 mg TID, omalizumab-naïve population with outlier removed
[11] = 400 mg TID, Prior Omalizumab Use

## CC(C)(C=C(C#N)C(=O)N1CCC[C@@H](n2nc(-c3ccc(Oc4ccccc4)cc3F)c3c(N)ncnc32)C1)N1CCN(C2COC2)CC1 [rilzabrutinib, (R)-2-[3-[4-amino-3-(2-fluoro-4-phenoxy-phenyl)pyrazolo[3,4-d]pyrimidin-1-yl]piperidine-1-carbonyl]-4-methyl-4-[4-(oxetan-3-yl)piperazin-1-yl]pent-2-enenitrile]
400 mg BID
  improvement compared to placebo across all endpoints: positive improvements across all endpoints
  participants with UAS7 of 0: 14.3%
  participants with UAS7 of ≤6: 20.0%
400 mg BID, ITT population
  UAS7 at Week 12, Mean (SD): 14.70 (14.29)
  UAS7 at Week 12, Median: 12.00
  UAS7 change from baseline at Week 12, LS Mean Diff vs. placebo (95% CI): −3.62 (−8.87, 1.63)
  UAS7 change from baseline at Week 12, Mean (SD): −16.02 (13.29) ^
  UAS7 change from baseline at Week 12, Median: −13.50
  UAS7 change from baseline at Week 12, LS Mean (SE): −14.82 (1.98)
  LS mean change in UAS7 from baseline to Week 12 (see Table 18): −10.01
[1]
  UAS7 Change from baseline Mean (SD): −14.40 (13.79)
  UAS7 Change from baseline Median: −13.00
  UAS7 Percent change from baseline Mean (SD): −51.30 (48.04) %
  UAS7 Percent change from baseline Median: −48.15%
  UAS7 change from baseline, Max: 0.0
  UAS7 change from baseline, Min: −29.0
  UAS7 change from baseline, Q1: −28.00
  UAS7 change from baseline, Q3: −2.00
  UAS7 percent change from baseline, Max: 0.0%
  UAS7 percent change from baseline, Min: −100.0%
  UAS7 percent change from baseline, Q1: −100.00%
  UAS7 percent change from baseline, Q3: −8.33%
[2]
  LS mean reduction in UAS7 from baseline to Week 12 (see Table 19): −9.79
  UAS7 at Week 12, Mean (SD): 15.61 (13.91)
  UAS7 at Week 12, Median: 14.00
  UAS7 change from baseline at Week 12, LS Mean Diff vs. placebo (95% CI): −4.09 (−9.59, 1.40)
  UAS7 change from baseline at Week 12, Mean (SD): −14.49 (12.08) ^
  UAS7 change from baseline at Week 12, Median: −12.80
  UAS7 change from baseline at Week 12, LS Mean (SE): −14.24 (2.06)
[3]
  UAS7 at Week 12, Mean (SD): 15.61 (13.91)
  UAS7 at Week 12, Median: 14.00
  UAS7 change from baseline at Week 12, LS Mean Diff vs. placebo (95% CI): −4.29 (−9.74, 1.16)
  UAS7 change from baseline at Week 12, Mean (SD): −14.49 (12.08) ^
  UAS7 change from baseline at Week 12, Median: −12.80
  UAS7 change from baseline at Week 12, LS Mean (SE): −14.30 (2.06)
400 mg QPM
  difference to placebo across endpoints: no difference
400 mg QPM, ITT population
  UAS7 at Week 12, Mean (SD): 21.80 (10.94)
  UAS7 at Week 12, Median: 22.40
  UAS7 change from baseline at Week 12, LS Mean Diff vs. placebo (95% CI): 0.97 (−4.40, 6.34)
  UAS7 change from baseline at Week 12, Mean (SD): −11.04 (9.56)
  UAS7 change from baseline at Week 12, Median: −9.40
  UAS7 change from baseline at Week 12, LS Mean (SE): −10.22 (2.01)
[4]
  UAS7 Change from baseline Mean (SD): −21.44 (16.26)
  UAS7 Change from baseline Median: −28.00
  UAS7 Percent change from baseline Mean (SD): −66.12 (46.34) %
  UAS7 Percent change from baseline Median: −86.67%
  UAS7 change from baseline, Max: 0.3
  UAS7 change from baseline, Min: −38.0
  UAS7 change from baseline, Q1: −36.40
  UAS7 change from baseline, Q3: 0.00
  UAS7 percent change from baseline, Max: 1.1%
  UAS7 percent change from baseline, Min: −100.0%
  UAS7 percent change from baseline, Q1: −100.00%
  UAS7 percent change from baseline, Q3: 0.00%
[5]
  UAS7 at Week 12, Median: 22.87
  UAS7 change from baseline at Week 12, LS Mean Diff vs. placebo (95% CI): 0.40 (−5.08, 5.89)
  UAS7 change from baseline at Week 12, Mean (SD): −10.57 (9.36)
  UAS7 change from baseline at Week 12, Median: −8.70
  UAS7 change from baseline at Week 12, LS Mean (SE): −9.74 (2.00) ^
[6]
  UAS7 at Week 12, Median: 22.87
  UAS7 change from baseline at Week 12, LS Mean Diff vs. placebo (95% CI): 0.08 (−5.29, 5.46)
  UAS7 change from baseline at Week 12, Mean (SD): −10.57 (9.36)
  UAS7 change from baseline at Week 12, Median: −8.70
  UAS7 change from baseline at Week 12, LS Mean (SE): −9.93 (1.96) ^
400 mg TID arm
  patients with improvement in the weekly UAS7: all patients except for one showed improvement
400 mg TID, ITT population
  UAS7 at Week 12, Median: 9.00
  UAS7 change from baseline at Week 12, LS Mean Diff vs. placebo (95% CI): −6.76 (−12.01, −1.51)
  UAS7 change from baseline at Week 12, Mean (SD): −20.30 (12.41) ^
  UAS7 change from baseline at Week 12, Median: −20.33
  UAS7 change from baseline at Week 12, LS Mean (SE): −17.95
  LS mean change in UAS7 from baseline to Week 12 (see Table 18): −12.72
400 mg TID, ITT population, listed as Rilzabrutinib
  UAS7 change from baseline at Week 12, LS Mean (SE): −17.95 (1.95)
400 mg TID, ITT population, belongs to LS mean change −12.72
  decrease from baseline in UAS7: 40.18%
[7]
  UAS7 Change from baseline Mean (SD): −11.40 (6.62)
  UAS7 Change from baseline Median: −14.00
  UAS7 Percent change from baseline Mean (SD): −38.24 (25.31) %
  UAS7 Percent change from baseline Median: −45.95%
  UAS7 change from baseline, Max: 0.0
  UAS7 change from baseline, Min: −17.0
  UAS7 change from baseline, Q1: −14.00
  UAS7 change from baseline, Q3: −12.00
  UAS7 percent change from baseline, Max: 0.0%
  UAS7 percent change from baseline, Q1: −50.00%
  UAS7 percent change from baseline, Q3: −28.57%
[8]
  UAS7 Change from baseline Mean (SD): −3.50 (4.95)
  UAS7 Change from baseline Median: −3.50
  UAS7 Percent change from baseline Mean (SD): −21.88 (30.94) %
  UAS7 Percent change from baseline Median: −21.88%
  UAS7 change from baseline, Max: 0.0
  UAS7 change from baseline, Min: −7.0
  UAS7 change from baseline, Q1: −7.00
  UAS7 change from baseline, Q3: 0.00
  UAS7 percent change from baseline, Max: 0.0%
  UAS7 percent change from baseline, Min: −43.8%
  UAS7 percent change from baseline, Q1: −43.75%
  UAS7 percent change from baseline, Q3: 0.00%
400 mg TID
  participants with UAS7 of 0: 20.0%
  participants with UAS7 of ≤6: 34.3%
[9]
  LS mean reduction in UAS7 from baseline to Week 12 (see Table 19): −11.44
  UAS7 at Week 12, Mean (SD): 11.00 (9.90)
  UAS7 at Week 12, Median: 12.25
  UAS7 change from baseline at Week 12, LS Mean Diff vs. placebo (95% CI): −6.75 (−12.23, −1.26)
  UAS7 change from baseline at Week 12, Mean (SD): −19.04 (11.40) ^
  UAS7 change from baseline at Week 12, Median: −18.92
  UAS7 change from baseline at Week 12, LS Mean (SE): −16.89
[10]
  UAS7 at Week 12, Mean (SD): 11.00 (9.90)
  UAS7 at Week 12, Median: 12.25
  UAS7 change from baseline at Week 12, LS Mean Diff vs. placebo (95% CI): −7.50 (−13.02, −1.97)
  UAS7 change from baseline at Week 12, Mean (SD): −19.04 (11.40) ^
  UAS7 change from baseline at Week 12, Median: −18.92
  UAS7 change from baseline at Week 12, LS Mean (SE): −17.50
400 mg TID, omalizumab-naïve population with outlier removed, listed as Rilzabrutinib
  UAS7 change from baseline at Week 12, LS Mean (SE): −17.50 (2.06)
400 mg TID, omalizumab-naïve population, listed as Rilzabrutinib
  UAS7 change from baseline at Week 12, LS Mean (SE): −16.89 (2.04)
400 mg BID, Omalizumab-Naïve
  UAS7 Mean (SD): 15.60 (17.52)
  UAS7 Median: 14.00
400 mg QPM, Omalizumab-Naïve
  UAS7 Mean (SD): 11.70 (16.82)
  UAS7 Median: 5.00
400 mg TID, Omalizumab-Naïve
  UAS7 Mean (SD): 21.40 (11.74)
  UAS7 Median: 20.00
[11]
  UAS7 Mean (SD): 15.58 (9.31)
  UAS7 Median: 15.58
400 mg BID, Week 2
  UAS7 % Change difference for rilzabrutinib vs. placebo LS Mean (95% CI): −17.26%
  UAS7 % Change from baseline LS Mean (SE): −36.13%
  UAS7 Change difference for rilzabrutinib vs. placebo LS Mean (95% CI): −4.49
  UAS7 Change from baseline LS Mean (SE): −10.82
400 mg QPM, Week 3
  UAS7 % Change difference for rilzabrutinib vs. placebo LS Mean (95% CI): −7.92%
  UAS7 % Change from baseline LS Mean (SE): −29.55%
  UAS7 Change difference for rilzabrutinib vs. placebo LS Mean (95% CI): −1.91
  UAS7 Change from baseline LS Mean (SE): −9.50
400 mg QPM, Week 5
  UAS7 % Change difference for rilzabrutinib vs. placebo LS Mean (95% CI): −0.72%
  UAS7 % Change from baseline LS Mean (SE): −32.52%
  UAS7 Change difference for rilzabrutinib vs. placebo LS Mean (95% CI): −0.26
